≈ marks a conversion by molar mass, not a printed value. Where a name gives a salt, the structure may show the parent alone. Read-outs that look alike come from different tables or passages of the source.
Legend:
Mtb H37Ra (ATCC 25177) = test: In vitro screen versus Mtb H37Ra (Alamar blue microdilution broth assay, MIC99); assay type: cell-based, M. tuberculosis; conditions: Mycobacterium tuberculosis
Method: The initial screening set and selected other compounds were tested for their inhibitory activity against Mtb H37Ra (ATCC 25177) and MAC NJ211 strains. Screening was performed at 1.28 and 12.8 μg/mL in Middlebrook 7H9 broth supplemented with 0.2% glycerol and ADC enrichment using a colorimetric (Alamar blue) microdilution broth assay by reported methods.[15]

MAC NJ211 = test: In vitro screen versus MAC NJ211 (Alamar blue microdilution broth assay, MIC99); assay type: cell-based; conditions: read-out: MAC NJ211 MIC99
Mtb FtsZ = Mtb FtsZ (Mycobacterium tuberculosis, UniProt P9WN95); test: biochemical; assay type: biochemical
Mtb FtsZ, sequence (P9WN95 whole entry): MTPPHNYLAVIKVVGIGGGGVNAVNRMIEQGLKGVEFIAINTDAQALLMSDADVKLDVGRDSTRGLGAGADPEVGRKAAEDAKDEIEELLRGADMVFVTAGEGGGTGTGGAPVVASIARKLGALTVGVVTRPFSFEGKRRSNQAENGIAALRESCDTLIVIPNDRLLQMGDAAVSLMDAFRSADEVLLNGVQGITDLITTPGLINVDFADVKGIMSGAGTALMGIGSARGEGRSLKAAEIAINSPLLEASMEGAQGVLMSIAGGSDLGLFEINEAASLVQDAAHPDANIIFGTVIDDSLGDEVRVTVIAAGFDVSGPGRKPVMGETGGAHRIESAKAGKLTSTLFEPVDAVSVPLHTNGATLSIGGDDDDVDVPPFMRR

tubulin = test: Tubulin polymerization assay; assay type: biochemical, human; conditions: mean ± standard deviation, at least three times per assay; NA = not active up to 100 μM
Mtb H37Rv = test: In vitro qHTS assay against Mtb H37Rv (IC90); assay type: cell-based, M. tuberculosis; conditions: for IC90 / inhibition at 50 µM: Mycobacterium tuberculosis, H37RV; for IC90: read-out: Mtb H37Rv IC90; for fold more active against Mtb H37Rv than corresponding analog: 48 vs 23, 57 vs 56, 60 vs 24
[1] = system: M. tuberculosis 41 (Mtb 41) FtsZ reporter strain; assay type: cell-based
[2] = lowest drug concentration that completely inhibited growth
[3] = lowest drug concentration that completely inhibited growth, read-out: Mtb H37Ra MIC99
[4] = same MIC99 given in μM, read-out: Mtb H37Ra MIC99 (concentration in μM in parentheses)
[5] = mean ± standard deviation, at least three times per assay, NA = not active up to 100 μM, read-out: Mtb FtsZ Polymerization IC50
[6] = concentration that inhibits bacterial growth by 90%

SMILES | MIC99 (MAC NJ211; [2]) [µg/mL] | MIC99 (Mtb H37Ra (ATCC 25177); [3]) [µg/mL] | IC50 (Mtb FtsZ; [5]) [µM] | IC90 (Mtb H37Rv; [6]) [nM] | other results
COc1cc2c(c(OC)c1OC)-c1ccc(OC)c(=O)cc1[C@@H](NC(C)=O)CC2 [Compound 1, Colchicine] | > 64 |  |  |  | MIC99 (Mtb H37Ra (ATCC 25177); read-out: Mtb H37Ra MIC99): > 64 µg/mL
O=C(O)c1cc(O)c2c(c1)C(=O)c1cccc(O)c1C2=O [Compound 2, Rhein] | > 128 | 32 |  |  | IC50 (Mtb FtsZ): 44.6 ± 6.3 µM; MIC99 (Mtb H37Ra (ATCC 25177); [4]): 113 µM
O=c1c(O)c(-c2ccc(O)c(O)c2)oc2cc(O)cc(O)c12 [Compound 3, Quercetin dihydrate] |  | > 128 |  |  | IC50 (Mtb FtsZ): 21.7 ± 4.8 µM; MIC99 (MAC NJ211): > 128 µg/mL
O=c1c(O)c(-c2cc(O)c(O)c(O)c2)oc2cc(O)cc(O)c12 [Compound 4, Myrcetin] |  | > 128 |  |  | IC50 (Mtb FtsZ): 42.4 ± 6.3 µM; MIC99 (MAC NJ211): > 128 µg/mL
CN(C)[C@@H]1C(O)=C(C(N)=O)C(=O)[C@@]2(O)C(O)=C3C(=O)c4c(O)cccc4[C@@](C)(O)[C@H]3C[C@@H]12 [Compound 5, Tetracycline] |  | 1 |  |  | IC50 (Mtb FtsZ): 87.1 ± 10.7 µM
CN(C)c1ccc(O)c2c1C[C@H]1C[C@H]3[C@H](N(C)C)C(O)=C(C(N)=O)C(=O)[C@@]3(O)C(O)=C1C2=O [Compound 6, Minocycline] |  | ≤ 0.5 |  |  | IC50 (Mtb FtsZ): 37.3 ± 4.6 µM
C=CCOc1c(Br)cc(S(=O)(=O)c2cc(Br)c(O)c(Br)c2)cc1Br [Compound 7, Zantrin Z4] |  | 64 |  |  | IC50 (tubulin): 77 ± 3 µM; MIC99 (MAC NJ211): > 64 µg/mL
COc1cc2c(cc1O)CC[n+]1cc3cc(OC)c(OC)cc3cc1-2 [Compound 9, Pseudojatrorrhizine] | 64 | > 64 | 105 ± 32 |  | 
C[n+]1cc2c3c(ccc2c2ccc4cc5c(cc4c21)OCO5)OCO3 [Compound 10, Sanguinarine Cl‾ • H2O] | > 64 | 64 |  |  | IC50 (Mtb FtsZ): 23 ± 4 µM; IC50 (tubulin): 30 ± 7 µM; MIC99 (Mtb H37Ra (ATCC 25177); [4]): 193 µM
CC/C(=C(\c1ccccc1)c1ccc(OCCN(C)C)cc1)c1ccccc1 [Compound 11, Tamoxifen citrate] | 32 |  |  |  | 
Nc1nonc1C(=O)N/N=C/c1cc(Cl)cc(Cl)c1O [Compound 12, ChemBridge 5481893] | > 64 | 64 | 33.4 ± 3 |  | MIC99 (Mtb H37Ra (ATCC 25177); [4]): 202 µM
CC(C)c1c(O)ccc2c1CC[C@H]1C(C)(C)CCC[C@]21C [Compound 13, Totarol] | 25 (≈ 87.3 µM) | 25 | 47.5 ± 4.9 |  | MIC99 (Mtb H37Ra (ATCC 25177); [4]): 87.3 µM
COc1cc(/C=C(\C#N)C(N)=O)cc(CSc2nc3ccccc3s2)c1O [Compound 15, AG-825] |  |  | 31.7 ± 1.7 |  | 
CCN(CC)CCNc1nc(/C=C/c2ccc(Cl)cc2)nc2cc3ccccc3cc12 [Compound 16, Zantrin Z3] | 2 (≈ 4.64 µM) | 1 |  |  | 
Oc1ccc(Cl)cc1Cc1cc(Cl)cc(Cc2cc(Cl)ccc2O)c1O [Compound 17, Zantrin Z1] | 16 (≈ 39.1 µM) | 8 |  |  | 
CSc1ccc(/C=C2/C(C)=C(CC(=O)N(C)CCN(C)C)c3cc(F)ccc32)cc1 [Compound 19, (Z)-N-(2-(Dimethylamino)ethyl)-2-(5-fluoro-2-methyl-1-(4-(methylthio)benzylidene)-1H-inden-3-yl)-N-methylacetamide] |  | 16 | 42.3 ± 6 | 6670 ± 140 | 

SMILES | MIC99 (MAC NJ211; [2]) [µg/mL] | MIC99 (Mtb H37Ra (ATCC 25177); [3]) [µg/mL] | IC50 (Mtb FtsZ; [5]) [µM] | IC90 (Mtb H37Rv; [6]) [nM] | other results
CNCCN(C)C(=O)CC1=C(C)/C(=C/c2ccc(SC)cc2)c2ccc(F)cc21 [Compound 23, (Z)-2-(5-Fluoro-2-methyl-1-(4-(methylthio)benzylidene)-1H-inden-3-yl)-N-methyl-N-(2-(methylamino)ethyl)acetamide] |  | 8 | 34.9 ± 7 | 8280 ± 330 | 
CSc1ccc(/C=C2/C(C)=C(CC(=O)NCCN3CCCCC3)c3cc(F)ccc32)cc1 [Compound 24, (Z)-2-(5-Fluoro-2-methyl-1-(4-(methylthio)benzylidene)-1H-inden-3-yl)-N-(2-(piperidin-1-yl)ethyl)acetamide] |  |  | 26.5 ± 4.8 | 1410 ± 30 | IC50 (tubulin): > 100 µM; melting point: 130 to 133 °C
CSc1ccc(/C=C2/C(C)=C(CC(=O)NCCN3CCCC3)c3cc(F)ccc32)cc1 [Compound 26, (Z)-2-(5-Fluoro-2-methyl-1-(4-(methylthio)benzylidene)-1H-inden-3-yl)-N-(2-(pyrrolidin-1-yl)ethyl)acetamide] |  | 8 | 33.5 ± 5.9 | 3040 ± 40 | melting point: 106 to 108 °C
CSc1ccc(/C=C2/C(C)=C(CC(=O)NCc3ccc(N(C)C)cc3)c3cc(F)ccc32)cc1 [Compound 35, (Z)-N-(4-(Dimethylamino)benzyl)-2-(5-fluoro-2-methyl-1-(4-(methylthio)benzylidene)-1H-inden-3-yl)acetamide] |  | 64 | 22.9 ± 4.8 | > 100000 | inhibition at 50 µM (Mtb H37Rv): 82%; Mtb H37Rv IC90 (Mtb H37Rv; [6]): inactive; melting point: 174 to 177 °C
CSc1ccc(/C=C2/C(C)=C(C(C)C(=O)NCCCN3CCCCC3C)c3cc(F)ccc32)cc1 (stereo not drawn) [Compound 50, (Z)-2-(5-Fluoro-2-methyl-1-(4-(methylthio)benzylidene)-1H-inden-3-yl)-N-(3-(2-methylpiperidin-1-yl)propyl)propanamide] |  |  |  | 1640 ± 70 | melting point: 87 to 89 °C
CSc1ccc(/C=C2/C(C)=C(C(C)C(=O)N3CCC[C@H]3CN3CCCC3)c3cc(F)ccc32)cc1 (stereo partly drawn) [Compound 52, 2-((Z)-5-Fluoro-2-methyl-1-(4-(methylthio)benzylidene)-1H-inden-3-yl)-1-((S)-2-(pyrrolidin-1-ylmethyl)pyrrolidin-1-yl)propan-1-one] |  |  |  | 2550 ± 30 | melting point: 80 to 82 °C
CSc1ccc(/C=C2/C(C)=C(C(C)C(=O)N3CCC(N4CCCCC4)CC3)c3cc(F)ccc32)cc1 (stereo not drawn) [Compound 53, (Z)-1-([1,4'-Bipiperidin]-1'-yl)-2-(5-fluoro-2-methyl-1-(4-(methylthio)benzylidene)-1H-inden-3-yl)propan-1-one] |  |  |  | 2840 ± 60 | melting point: 80 to 82 °C
CSc1ccc(/C=C2/C(C)=C(C(C)C(=O)N3CCN(CCCN(C)C)CC3)c3cc(F)ccc32)cc1 (stereo not drawn) [Compound 54, (Z)-1-(4-(3-(Dimethylamino)propyl)piperazin-1-yl)-2-(5-fluoro-2-methyl-1-(4-(methylthio)benzylidene)-1H-inden-3-yl)propan-1-one] |  |  |  | 3720 ± 60 | melting point: 78 to 80 °C
CSc1ccc(/C=C2/C(C)=C(CC(=O)N(C)CCN(C)C(=O)C(N)C(C)C)c3cc(F)ccc32)cc1 (stereo not drawn) [Compound 56, (Z)-2-Amino-N-(2-(2-(5-fluoro-2-methyl-1-(4-(methylthio)benzylidene)-1H-inden-3-yl)-N-methylacetamido)ethyl)-N,3-dimethylbutanamide] |  | 8 | 38 ± 6.3 | 4340 ± 60 | 
CSc1ccc(/C=C2/C(C)=C(C(C)C(=O)N(C)CCN(C)C(=O)[C@@H](N)C(C)C)c3cc(F)ccc32)cc1 (stereo partly drawn) [Compound 57, (2S)-2-Amino-N-(2-(2-((Z)-5-fluoro-2-methyl-1-(4-(methylthio)benzylidene)-1H-inden-3-yl)-N-methylpropanamido)ethyl)-N,3-dimethylbutanamide] |  |  |  | 740 | fold more active against Mtb H37Rv than corresponding analog (Mtb H37Rv): 6 fold; melting point: 60 to 62 °C
CSc1ccc(/C=C2/C(C)=C(CCNCc3ccccc3)c3cc(F)ccc32)cc1 [Compound 58] | 4 (≈ 9.63 µM) | 2 |  | 2070 ± 10 | 
CSc1ccc(/C=C2/C(C)=C(CCNCc3ccco3)c3cc(F)ccc32)cc1 [Compound 59, (Z)-2-(5-Fluoro-2-methyl-1-(4-(methylthio)benzylidene)-1H-inden-3-yl)-N-(furan-2-ylmethyl)ethanamine] | 8 (≈ 19.7 µM) | 4 |  | 1690 ± 60 | 
CSc1ccc(/C=C2/C(C)=C(CCNCCN3CCCCC3)c3cc(F)ccc32)cc1 [Compound 60, (Z)-2-(5-Fluoro-2-methyl-1-(4-(methylthio)benzylidene)-1H-inden-3-yl)-N-(2-(piperidin-1-yl)ethyl)ethanamine] |  | 2 |  |  | MIC99 (MAC NJ211): 8 µg/mL (≈ 18.3 µM); fold more active against Mtb H37Rv than corresponding analog (Mtb H37Rv): 1.6 fold; IC90 (Mtb H37Rv): 880 ± 10 nM
CSc1ccc(/C=C2\C(C)=C(CC(=O)NCCN(C)C)c3cc(F)ccc32)cc1 [Compound 61, (E)-N-(2-(Dimethylamino)ethyl)-2-(5-fluoro-2-methyl-1-(4-(methylthio)benzylidene)-1H-inden-3-yl)acetamide] | 16 (≈ 39 µM) | 16 | 44.6 ± 6.3 | 7700 ± 330 | 
COc1cc(/C=C2\C=C(CC(=O)NCCN(C)C)c3cc(F)ccc32)cc(OC)c1OC [Compound 62, (E)-N-(2-(dimethylamino)ethyl)-2-(5-fluoro-1-(3,4,5-trimethoxybenzylidene)-1H-inden-3-yl)acetamide] | > 64 | 32 | 43.3 ± 9.8 | > 100000 | MIC99 (Mtb H37Ra (ATCC 25177); [4]): 72.5 µM; inhibition at 50 µM (Mtb H37Rv): 82%; FtsZ ring assembly in Mtb 41 [1]: inhibit FtsZ ring assembly; growth of Mtb 41 [1]: significant growth inhibition
CC[C@@H](CO)NCCN[C@@H](CC)CO [Ethambutol] | 4 to 8 (≈ 19.6 to 39.2 µM) | 2 to 4 |  |  | 
